Like-named read-outs stand apart in the source and are kept apart here.
Legend:
[1] = biological target: platelet surface PDI (Homo sapiens, UniProt P07237); experiment: Cell surface PDI reductase activity on intact human platelets (Di-E-GSSG assay); conditions: read-out: Surface PDI IC50; intact human platelets, Di-E-GSSG, 5 μM DTT
Experimental: (§3) In this assay, a nonfluorescent substrate, dieosin glutathione disulfide (Di-E-GSSG), was reduced into a fluorescent product eosin-glutathione (E-GSH) by platelet surface PDI in the presence of 5 μM dithiothreitol (DTT).

[2] = system: glioma U87; experiment: Cell viability, resazurin assay, U87; conditions: Homo sapiens, 24 h, read-out: U87 IC50
Experimental: (§4) Cells were maintained in a humidified incubator at 37 °C in 5% CO2, and cell viability was determined with the resazurin assay (Cayman Chemical, USA) after the incubation with compounds for indicated concentrations and times or DMSO as control.[72]

[3] = system: washed human platelets; experiment: Collagen-induced platelet aggregation; type: cell-based; conditions: for IC50: Platelet, washed human platelets, collagen (5 μg/mL)
Experimental: (§1) The antiplatelet effects of the JUG derivatives were evaluated by measuring human platelet aggregation, which can be regulated by cell surface PDI. Platelet aggregation was induced with platelet activators U46619 (a mimetic of thromboxane A2) and collagen (binding to GPVI).
(§2) Washed human platelets were prepared from acid citrate dextrose-anticoagulated blood of healthy human volunteers as described previously.[73] The study was approved by the Institutional Review Board of Kaohsiung Medical University, and informed consent was obtained from every volunteer. Platelet aggregation was measured by using a turbidimetric aggregometer (Chrono-Log Co., USA) under stirring conditions (1200 rpm) at 37 °C. The extent of platelet aggregation was measured as the maximal increase of light transmission after the addition of the stimulators U46619 and collagen.[73] In the TCIPA assay, platelet aggregation was induced by A549 (1 × 10^4 cells/mL), MDA-MB-231 (1 × 10^2 cells/mL), or RPMI8226 (1 × 10^5 cells/mL) cancer cells in the presence of 0.375% plasma.[74]

[4] = system: breast cancer MDA-MB-231; experiment: Cell viability, resazurin assay, MDA-MB-231; conditions: for IC50: Homo sapiens, MDA-MB-231, 24 h, read-out: MDA-MB-231 IC50
Experimental: as §4

[5] = system: human vascular endothelial EA.hy926 cells; experiment: Cell viability, resazurin assay, EA.hy926; conditions: EA.hy 926, 24 h, read-out: EAhy926 IC50
Experimental: as §4

[6] = system: lung cancer A549; experiment: Cell viability, resazurin assay, A549; conditions: for IC50: Homo sapiens, A549, 24 h, read-out: A549 IC50
Experimental: as §4

[7] = system: washed human platelets; experiment: U46619-induced platelet aggregation; type: cell-based; conditions: for IC50: Platelet, washed human platelets, U46619 (1 μM)
Experimental: as §1, §2

[8] = Parallel artificial membrane permeability assay (PAMPA); conditions: 50 μM, 25 ℃, 3 h, verapamil = 100%, ranitidine = 0%
Experimental: 1. Parallel artificial membrane permeability assay (PAMPA). […]
evolution instruments from pION Inc. In the PAMPA assay, a set of sandwich plates consists of a 96-well microtiter donor plate at the bottom and a 96-well filter acceptor plate on the top from […]
The stock solutions of samples were prepared at 10 mM concentrations in DMSO and stored at 0 ℃ before use. Before being added to a 96-well filter plate, the stock solution was diluted first with buffer to achieve a final sample concentration of 50 μM and to reduce the DMSO concentration below 1% (v/v). Each well of the 96-well donor plate was filled with a 200 μL diluted sample solution (50 μM), and the 96-well filter acceptor plate was then wetted with a 5 μL 2% w/v dioleyoylphosphatidylcholine (DOPC) in n-dodecane and subsequently placed on the donor wells.
Immediately, the acceptor wells were filled with 200 μL of buffer solution and the PAMPA plate sandwich was sealed and incubated at 25 ℃ for 3 h. After reaching the permeation time, the PAMPA plate sandwich was separated and transferred to 96-well UV plates respectively. The amounts of drugs in both the donor and acceptor compartments were measured by comparing the experimental spectra with the UV spectrum (220∼400 nm) obtained from reference standards.

[9] = biological target: purified human recombinant PDI (rPDI) (Homo sapiens, UniProt P07237); experiment: Recombinant PDI reductase activity (Di-E-GSSG assay); conditions: read-out: rPDI IC50; human recombinant PDI, Di-E-GSSG, 5 μM DTT
purified human recombinant PDI (rPDI), sequence (P07237 18-508): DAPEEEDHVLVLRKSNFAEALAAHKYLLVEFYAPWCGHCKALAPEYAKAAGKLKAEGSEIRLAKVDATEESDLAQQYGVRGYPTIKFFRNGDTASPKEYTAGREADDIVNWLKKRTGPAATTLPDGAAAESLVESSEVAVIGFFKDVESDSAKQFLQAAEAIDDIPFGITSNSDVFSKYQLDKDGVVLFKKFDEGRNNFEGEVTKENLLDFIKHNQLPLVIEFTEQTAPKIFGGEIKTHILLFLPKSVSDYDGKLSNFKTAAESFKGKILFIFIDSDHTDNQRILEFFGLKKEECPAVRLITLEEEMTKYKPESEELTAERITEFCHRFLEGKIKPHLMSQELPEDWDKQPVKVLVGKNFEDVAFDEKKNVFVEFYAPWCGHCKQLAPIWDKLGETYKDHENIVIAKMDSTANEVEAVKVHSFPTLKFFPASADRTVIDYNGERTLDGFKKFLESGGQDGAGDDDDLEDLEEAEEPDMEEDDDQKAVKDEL
Experimental: as §3

[10] = system: multiple myeloma RPMI8226; experiment: Cell viability, resazurin assay, RPMI8226; conditions: for S.I. (EAhy926/RPMI8226), selectivity index: 24 h IC50 ratio; for IC50: Homo sapiens
Experimental: as §4

[11] = RPMI-8226, 24 h, read-out: RPMI8226 IC50
[12] = concentrations up to 40 μM, unpublished data

platelet surface PDI, sequence (P07237 18-508): as above

Q: Which results are given for `COc1ccc(OC2=CC(=O)c3cccc(O)c3C2=O)cc1` [Compound 21, 2-(4-Methoxyphenoxy)-8-hydroxynaphthalene-1,4-dione]?
A: IC50 [1]: 1.12 ± 0.31 µM; IC50 [2]: 12.6 ± 0.68 µM; IC50 [3]: 0.35 ± 0.03 µM; IC50 [4]: 6.62 ± 1.79 µM; IC50 [5]: 6.03 ± 0.07 µM; IC50 [6]: 12 ± 1.47 µM; IC50 [7]: 1.35 ± 0.13 µM; Permeability (%) [8]: 61.4%; IC50 [9]: 1.37 ± 0.26 µM; S.I. (EAhy926/RPMI8226), selectivity index [10]: 10.6; IC50 [10, 11]: 0.57 ± 0.02 µM

Q: For `O=C1C=C(Br)C(=O)c2c(O)cccc21` [Compound 17, 2-Bromo-8-hydroxynaphthalene-1,4-dione], which IC50 [1] is on record?
A: 1.13 ± 0.25 µM

Q: And the IC50 [2]?
A: > 20 µM

Q: And the IC50 [3]?
A: 0.52 ± 0.21 µM

Q: What about the IC50 [4] of the same molecule?
A: 14.1 ± 0.79 µM

Q: What about the IC50 [5] of the same molecule?
A: > 20 µM

Q: And the IC50 [6]?
A: 15.3 ± 0.74 µM

Q: What about the IC50 [7] of the same molecule?
A: 1.76 ± 0.08 µM

Q: And the “Permeability (%)” value [8]?
A: 16.9%

Q: What about the IC50 [9] of the same molecule?
A: 1.99 ± 0.63 µM

Q: And the “S.I. (EAhy926/RPMI8226), selectivity index” value [10]?
A: >4.8

Q: And the IC50 [10, 11]?
A: 4.21 ± 0.43 µM

Q: For `COc1ccc(SC2=C(O)C(=O)c3cccc(O)c3C2=O)cc1` [Compound 28, 3,8-Dihydroxy-2-((4-methoxyphenyl)thio)naphthalene-1,4-dione], which IC50 [1] is on record?
A: > 20 µM

Q: What about the IC50 [2] of the same molecule?
A: > 20 µM

Q: What about the IC50 [3] of the same molecule?
A: > 20 µM

Q: What about the IC50 [4] of the same molecule?
A: > 100 µM

Q: What about the IC50 [6] of the same molecule?
A: > 100 µM

Q: What about the IC50 [7] of the same molecule?
A: > 20 µM

Q: What about the “Permeability (%)” value [8] of the same molecule?
A: 9.28%

Q: And the IC50 [10, 11]?
A: > 20 µM

Q: For `CC(C)(C)CN(C(=O)CCl)C1CCS(=O)(=O)C1` (stereo not shown) [sulfopin, reference compound], which “effect on collagen-induced platelet aggregation” value [3, 12] is on record?
A: does not show any effect

Q: And the “effect on cell viability of MDA-MB-231” value ([4]; unpublished data)?
A: no significant impacts

Q: And the “effect on cell viability of A549” value ([6]; unpublished data)?
A: no significant impacts

Q: And the “effect on U46619-induced platelet aggregation” value [7, 12]?
A: does not show any effect

Q: And the “effect on cell viability of RPMI8226” value ([10]; unpublished data)?
A: no significant impacts

Q: What does the source list for `O=C1C=C(SC[C@H]2OC(O)[C@H](O)[C@@H](O)[C@@H]2O)C(=O)c2c(O)cccc21` (mixture of isomers) [Compound 19, 2-(6-Deoxy-6-thio-D-glucose)-8-hydroxynaphthalene-1,4-dione]?
A: IC50 [1]: 1.17 ± 0.38 µM; IC50 [2]: > 20 µM; IC50 [3]: > 50 µM; IC50 [4]: > 100 µM; IC50 [6]: > 100 µM; IC50 [7]: > 50 µM; Permeability (%) [8]: -0.96%; IC50 [9]: 3.7 ± 1.22 µM; IC50 [10, 11]: > 20 µM

Q: With `CN(C)C1=CC(=O)c2c(O)cccc2C1=O` [Compound 24, 3-(Dimethylamino)-8-hydroxynaphthalene-1,4-dione] as the molecule, how does the IC50 [1] read?
A: > 20 µM

Q: And the IC50 [2]?
A: > 20 µM

Q: And the IC50 [3]?
A: 16 ± 2.11 µM

Q: What about the IC50 [4] of the same molecule?
A: > 100 µM

Q: What about the IC50 [6] of the same molecule?
A: > 100 µM

Q: What about the IC50 [7] of the same molecule?
A: > 20 µM

Q: And the “Permeability (%)” value [8]?
A: 30.2%

Q: And the IC50 [10, 11]?
A: > 20 µM

Q: What does the source list for `CC(C)C[C@H](NC(=O)[C@H](Cc1ccccc1)NC(=O)c1cnccn1)B(O)O` [bortezomib, reference compound]?
A: IC50 [2]: 7.86 ± 1.23 µM; IC50 [4]: 0.46 ± 0.01 µM; IC50 [5]: 0.09 ± 0.01 µM; IC50 [6]: 0.69 ± 0.2 µM; S.I. (EAhy926/RPMI8226), selectivity index [10]: 0.017; IC50 [10, 11]: 5.24 ± 0.79 µM; IC50 ([10]; RPMI-8226, 72 h, read-out: RPMI8226 IC50, 72 h): 0.08 µM

Q: Which IC50 [1] does the source give for `CC(C)(C)c1ccc(SC2=CC(=O)c3cccc(O)c3C2=O)cc1` [Compound 13, 2-((4-(tert-Butyl)phenyl)thio)-8-hydroxynaphthalene-1,4-dione] here?
A: 1.5 ± 0.05 µM

Q: And the IC50 [2]?
A: > 20 µM

Q: What about the IC50 [3] of the same molecule?
A: 0.64 ± 0.05 µM

Q: And the IC50 [4]?
A: 15.1 ± 1.48 µM

Q: What about the IC50 [5] of the same molecule?
A: > 20 µM

Q: And the IC50 [6]?
A: > 100 µM

Q: What about the IC50 [7] of the same molecule?
A: 1.85 ± 0.17 µM

Q: What about the “Permeability (%)” value [8] of the same molecule?
A: 8.5%

Q: And the IC50 [9]?
A: 1.29 ± 0.3 µM

Q: What about the “S.I. (EAhy926/RPMI8226), selectivity index” value [10] of the same molecule?
A: >5.7

Q: And the IC50 [10, 11]?
A: 3.5 ± 0.26 µM

Q: For `COc1ccc(SC2=C(O)C(=O)c3c(O)cccc3C2=O)cc1` [Compound 27, 2,8-Dihydroxy-3-((4-methoxyphenyl)thio)naphthalene-1,4-dione], which IC50 [1] is on record?
A: > 20 µM

Q: What about the IC50 [2] of the same molecule?
A: > 20 µM

Q: And the IC50 [3]?
A: > 20 µM

Q: What about the IC50 [4] of the same molecule?
A: > 100 µM

Q: And the IC50 [5]?
A: > 20 µM

Q: And the IC50 [6]?
A: > 20 µM

Q: And the IC50 [7]?
A: 13.7 ± 0.89 µM

Q: And the “Permeability (%)” value [8]?
A: 1.08%

Q: And the IC50 [10, 11]?
A: > 20 µM

From PMC10945480 (Journal of Medicinal Chemistry, 2024)
